# According to patent US20040151761A1, “Methods and compositions utilizing astaxanthin” (priority 2003, published 2004):
# Entries after “also recorded” stand apart in the source; their conditions may differ.
# Key:
# [1] = Plasma astaxanthin in dogs fed astaxanthin diets; type: in vivo, dog
# Protocol: (§1) Female Beagle dogs (9 to 10 mo old; 8.2±0.2 kg body weight; Covance Research Products Inc., Kalamazoo, Mich.) were randomly assigned (n=14/treatment) to be fed 0, 10, 20, or 40 mg astaxanthin (109 g astaxanthin/kg oleoresin concentrate from Haematococcus pluvialis, astraZanthin™, La Haye Laboratories, Redmond, Wash.) daily for 16 weeks. Astaxanthin was incorporated into a commercial basal diet (The Iams Co., Lewisburg, Ohio.) and fed two times daily (200 g food/d). The diet composition was as follows (g/kg): 85.3 moisture, 275.8 protein, 60.7 ash, 115.0 fat, 9.9 Ca, 9.3 P, 21.3 crude fiber, and 18,914 kJ/kg gross energy; the n-6:n-3 fatty acid ratio was 7.9. Dogs were housed in 2×3 m pens (2 dogs/pen) in a temperature (20 to 22° C.) and light-(14 hour light) controlled facility. Body weight was recorded on week 0, 4, 8, and 16. Blood was collected on wk 0, 6 and 12 for assessing immune function. All dogs were vaccinated (Vanguard 5™, Smithkline Beacham, West Chester, Pa.) twice on week 12 and 14 and blood again taken on week 16 to assess post-vaccination immune responses.
# [2] = Body weight of dogs fed astaxanthin; type: in vivo, dog
# Protocol: as §1
# [3] = Hematology in dogs; type: in vivo, dog; details: throughout the study
# Protocol: (§2) Hematology. Complete blood count (white blood cell, RBC and platelet counts, lymphocyte, monocyte and granulocyte differential counts, hematocrit, hemoglobin, and mean corpuscular volume, hemoglobin and hemoglobin concentration, and platelet volume) was performed on a hematology analyzer (Vet ABC-Hematology Analyzer, Heska, Fort Collins, Colo.) using EDTA-treated blood.
# [4] = test system: peripheral blood mononuclear cell (PBMC); test: Lymphoproliferation in dogs (whole blood cultures); type: in vivo, dog
# Protocol: Lyniphoproliferation. The proliferation response of peripheral blood mononuclear cell (PBMC) to PHA (2 and 10 mg/L final concentration), concanavalin A (Con A; 1 and 5 mg/L), and pokeweed mitogen (PWM; 0.25 and 1.25 mg/L) was assessed on week 0, 6, 12 and 16 using whole blood cultures (Chew et al., 2000). Whole blood was cultured in order to mimic in vivo conditions.
# [5] = test system: C-reactive protein (CRP); test: Plasma C-reactive protein in dogs; type: in vivo, dog
# Protocol: C-Reactive protein. Changes in acute phase proteins were assessed in plasma by measuring the C-reactive protein (CRP) concentrations using horseradish peroxidase-labeled anti-canine CRP in a solid-phase sandwich immunoassay (Tri Delta Diagnostics, Morris Plains, N.J.).
# [6] = test system: 8-Hydroxy-2′-deoxyguanosine (8-OHdG); test: Oxidative damage to DNA in dogs (plasma 8-OHdG ELISA); type: in vivo, dog
# Protocol: Oxidative damage to DNA. 8-Hydroxy-2′-deoxyguanosine (8-OHdG) was measured in plasma ELISA (BIOXYTECHTM™ 8-OHhdG-EIA Kit, OxisResearch, Portland, Oreg.; sensitivity=0.5 micrograms/L).
# [7] = Body weight of cats fed astaxanthin; type: in vivo, cat
# Protocol: (§3) Female domestic short hair cats (8 to 9 months old; 3.2±0.04 kg body weight; Liberty Farms, Waverly, N.Y.) were randomly assigned (n=14/diet) to be fed 0, 1, 5, or 10 mg astaxanthin (109 g astaxanthin/kg oleoresin concentrate from Haematococcus pluvialis, astraZanthin™, La Haye Laboratories, Redmond, Wash.) daily (based on an average intake of 90 g food/day) for 12 weeks. Astaxanthin was incorporated into a commercial basal diet (The Iams Co., Lewisburg, Ohio.) and fed ad libitum. The diet composition was as follows (g/kg): 63.1 moisture, 350.6 protein, 62.7 ash, 213.6 fat, 10.0 Ca, 7.6 P, and 7.1 crude fiber, 21,707 kJ/kg gross energy; the n-6:n-3 fatty acid ratio was 9.9. Cats were housed in a temperature (20 to 22° C.) and light-controlled (14 hour light) facility and body weights were determined at weeks 0, 4, 8 and 12. Blood was collected at week 0 and 8 to assess immune function. To assess the dietary effects of astaxanthin on immune response after an antigenic challenge, all cats were vaccinated (Felocell™, Pfizer, N.Y.) two times (weeks 8 and 10) and blood was collected at week 12 to measure the same immune parameters.
# [8] = Hematology in cats; design: species or system cat; details: in vivo
# Protocol: as §2, with “Hematology parameters” for “Complete blood count”, “were measured using” for “was performed on”, “Colo.).” for “Colo.) using EDTA-treated blood.”
# [9] = test system: peripheral blood mononuclear cell (PBMC); test: Lymphoproliferation in cats (whole blood); type: in vivo, cat
# Protocol: Lymphoproliferation. Mitogen-induced peripheral blood mononuclear cell (PBMC) proliferation was assessed by incubating whole blood in the presence of PHA (0.25 and 1.25 mg/L final concentration), con A (0.5 and 2.5 mg/L), and pokeweed mitogen (PWM; 0.025 and 0.125 mg/L) as previously described (Chew et al., 2000). Whole blood was used in order to simulate in vivo conditions. Results are reported as stimulation index (cpm of mitogen-stimulated÷cpm of unstimulated cultures).
# [10] = test system: IgG and IgM; test: Plasma IgG and IgM in cats (ELISA); type: in vivo, cat
# Protocol: as §3
# IgG and IgM. Plasma concentrations of IgG (sheep anti-IgG; sensitivity=16 μg/L) and IgM (goat anti-IgM; sensitivity=31 μg/L) were analyzed by ELISA using a commercial kit (Bethyl Lab., Inc., Montgomery, Tex.).
# [11] = post-vaccination week 12, 10 mg
structure (smiles),measurement,setting,value
"CC1=C(/C=C/C(C)=C/C=C/C(C)=C/C=C/C=C(C)/C=C/C=C(C)/C=C/C2=C(C)C(=O)C(O)CC2(C)C)C(C)(C)CC(O)C1=O (stereo not drawn) [astaxanthin, 3,3′-dihydroxy-beta, beta-carotene-4,4′-dione]",time at which maximal blood concentrations were observed,[1]; all supplemented dogs,≤ 6 wk
same,plasma astaxanthin concentration,"[1]; supplemented dogs, through week 16",increased in a dose-dependent manner
same,influence of diet on body weight,"[2]; dogs fed 0, 10, 20 or 40 mg daily, throughout 16 wk study",did not significantly influence body weight
same,body weight averaged,"[2]; wk 16, average over all diets",8.57 ± 0.11 kg
same,blood hematology,[3],generally showed no dietary effects
same,con A-induced PBMC proliferation,"[4]; 20 mg, week 12",higher con A-induced PBMC proliferation than un-supplemented dogs; also recorded: highest blastogenic response
same,PHA-stimulated PBMC proliferation,[4]; all time periods,did not influence
same,PWM-stimulated PBMC proliferation,[4]; all time periods,did not influence
same,plasma C-reactive protein concentrations,"[5]; post-vaccination, week 16",decreased plasma C-reactive protein concentrations; also recorded: lower concentrations of circulating CRP
same,plasma CRP concentrations between diets,[5]; through week 12,similar
same,plasma CRP concentration averaged,"[5]; through week 12, average over diets",4.48 mg/L
same,plasma 8-OHdG concentrations,[6]; dogs fed 40 mg versus lower doses,no further decrease
same,plasma 8-OHdG production,"[6]; supplemented dogs, as with C-reactive protein (post-vaccination)",inhibited the production of 8-OHdG
same,plasma 8-OHdG concentration,[6]; wk 12,no dietary influence
same,body weight between treatments,"[7]; cats fed 0, 1, 5 or 10 mg daily, 12 weeks",not significantly different between treatment
same,body weight averaged,"[7]; week 12, average over all diets",3.22 ± 0.06 kg
same,blood hematology parameters,[8],generally did not influence
same,hematology values relative to normal range,[8],within the normal range
same,proliferative response to ConA,"[9]; 1 mg, post-vaccination week 12",higher proliferative response
same,proliferative response to PHA,"[9]; 1 mg, post-vaccination week 12",higher proliferative response
same,proliferative response to PWM,"[9]; 1 mg, post-vaccination week 12",higher proliferative response
same,mitogen-induced PBMC proliferation,[9]; by week 8,did not influence
same,plasma IgG concentration,"[10]; post-vaccination week 12, 5 mg",only those fed 5 mg astaxanthin were significant
same,plasma IgM concentration,"[10]; post-vaccination week 12, 5 mg",only those fed 5 mg astaxanthin were significant
same,plasma IgG concentration,[10]; [11],still numerically higher
same,plasma IgM concentration,[10]; [11],still numerically higher
same,plasma IgG concentration,"[10]; week 8, 10 mg",higher
same,plasma IgM concentration,"[10]; week 8, 10 mg",higher
